Experimental data as given in patent publication US9814726B2, “Composition for preventing or treating fatty liver diseases” (LG CHEM, LTD., priority 2014, dated 2017).

How the values were obtained:
[1] = system: C57BL/6J Lep(−/−) male (ob/ob) mice; test: Obese fatty liver model: ob/ob mice on normal chow diet, oral treatment for 4 weeks, liver and serum analysis; assay type: in vivo, mouse
Method: As experimental animals, 6-week-old male ob/+ mouse for control, and 6-week-old C57BL/6J Lep(−/−) male (ob/ob) mice were purchased from Harlan (Indianapolis, Ind.). The purchased mice were maintained under standard condition (25° C., 55% humidity and 12-hour light periodicity) with normal chow diet. 30 mice were divided into 3 groups, 10 mice in each group. Group 1 included 10 C57BL/6J(ob/+ control group) mice, Group 2 was vehicle-treated 10 ob/ob mice treated with saline solution, and Group 3 was a group in which (tetrahydropyran-4-yl)-[2-phenyl-5-(1,1-dioxo-thiomorpholin-4-yl)methyl-1H-indol-7-yl]amine (LG Life Sciences Ltd., Daejeon, Republic of Korea) was treated once a day by 20 mg/kg dosage. Saline solution and (tetrahydropyran-4-yl)-[2-phenyl-5-(1,1-dioxo-thiomorpholin-4-yl)methyl-1H-indol-7-yl]amine solution were orally administered for 4 weeks. After treatment, animals were anesthetized and sacrificed, and livers were rapidly taken and stored for the next analysis. […]

ob/ob mice with MCD diet = test: Steatohepatitis model accompanying obesity: ob/ob mice with MCD (methionine choline-deficient) diet; assay type: in vivo, mouse
[2] = ob/ob mice, 20 mg/kg/day, FIG. 2
[3] = ob/ob mice, oral 20 mg/kg once a day, 4 weeks, p<0.001 vs vehicle
[4] = ob/ob mice, oral 20 mg/kg once a day, 4 weeks, vs vehicle
[5] = 20 mg/kg/day, vs vehicle-treated group, FIG. 5A/5B

Structure (SMILES): O=S1(=O)CCN(Cc2cc(NC3CCOCC3)c3[nH]c(-c4ccccc4)cc3c2)CC1 [Comp., (tetrahydropyran-4-yl)-[2-phenyl-5-(1,1-dioxo-thiomorpholin-4-yl)methyl-1H-indol-7-yl]amine]
- activation of the mitochondrial respiration chain complexes I, III, IV and V ([1]; ob/ob mice liver, 20 mg/kg/day, FIG. 3): meaningfully increased
- OXPHOS complexes I, III, IV and V by BN-PAGE: binding between the complexes ([1]; ob/ob mice treated for 4 weeks, 20 mg/kg/day): enhanced
- amount of TBARS (oxidative stress, lipid oxidation) [1, 2]: significant decrease
- level of 3-NT (nitrotyrosine) in liver [1, 2]: considerably decreased
- amount of TNF-alpha in minced liver samples (ELISA) ([1]; ob/ob mice, 20 mg/kg/day, FIG. 4B): significantly low amount
- expression of liver mitochondrial complex I, III, IV and V ([1]; ob/ob mice, 20 mg/kg/day, compared with ob/+ control group, FIG. 3A): remained up to the level of the control group
- expression of mRNA of TNF-α in the liver ([1]; ob/ob mice, 20 mg/kg/day, vs vehicle): inhibited
- amount of IL-6 mRNA ([1]; ob/ob mice, 20 mg/kg/day, vs vehicle group): no difference
- number of 8-OHdG positive liver cells (DNA damage by oxidative stress) ([1]; ob/ob mice, 20 mg/kg/day, vs vehicle, FIG. 2): remarkably low
- phosphorylation of NF-κB p65, NF-κB p105, p38 and JNK 1/2 in liver (immunoblotting) ([1]; ob/ob mice, 20 mg/kg/day, vs vehicle, FIG. 4A): significantly decreased
- inflammation reaction: infiltration of activated macrophages in liver (immune staining of F4/80 and Cd68) ([1]; ob/ob mice, 20 mg/kg/day, vs vehicle, FIG. 4C and 4D): decreased
- fatty tissue in liver (H&E staining) ([1]; ob/ob mice, oral 20 mg/kg once a day, 4 weeks, FIG. 1): remarkably decreased
- TG level in the blood serum ([1]; ob/ob mice, oral 20 mg/kg once a day, 4 weeks, between groups (data not shown)): did not show much difference
- amount of liver TG [1, 3]: significant decrease
- amount of liver cholesterol [1, 3]: significant decrease
- ALT value in blood serum [1, 4]: decreased
- AST value in blood serum [1, 4]: decreased
- Oil-Red O stained area in liver ([1]; ob/ob mice, oral 20 mg/kg once a day, 4 weeks, vs vehicle-treated group): remarkably decreased
- amount of ALT in blood serum (ob/ob mice with MCD diet; 20 mg/kg/day): remarkably decreased
- amount of AST in blood serum (ob/ob mice with MCD diet; 20 mg/kg/day): remarkably decreased
- liver TG amount (ob/ob mice with MCD diet; 20 mg/kg/day (vehicle 400+/−80), FIG. 5C): 210+/−20 mg/g liver
- phosphorylation of fibrosis markers (NF-γB p65, NF-κB p105, p38 and JNK 1/2) (ob/ob mice with MCD diet; 20 mg/kg/day, FIG. 5D): inhibited
- decrease of liver TG amount (ob/ob mice with MCD diet; 20 mg/kg/day, vs vehicle, FIG. 5C): about 50%
- expression of collagen I (liver fibrosis) (ob/ob mice with MCD diet; [5]): inhibited
- intensity of trichrome staining (liver fibrosis) (ob/ob mice with MCD diet; [5]): inhibited
